Values belong to the compound of their own block, whether it stands above or below them. Active and inactive are the calls of the source. The calls are words filed in the database; no cut-off is given here.
Key:
in vitro [1] = conditions: human, plasma diluted in PBS (1:2 v/v)
Description: Stability in human plasma in PBS (1:2 v/v) assessed as intact compound at 37 degC measured after 24 hrs

in vitro [2] = conditions: human, plasma diluted in PBS (1:2 v/v); remark: listed apart in the source
Description: Stability in human plasma in PBS (1:2 v/v) assessed as intact compound at 37 degC measured after 72 hrs

[3] = molecular target: T1, Protein deacetylase HDAC6 (Homo sapiens) (UniProt Q9UBN7); conditions: MV4-11, dose 5.0 nM, time 24.0 hrs
T1 sequence (whole entry): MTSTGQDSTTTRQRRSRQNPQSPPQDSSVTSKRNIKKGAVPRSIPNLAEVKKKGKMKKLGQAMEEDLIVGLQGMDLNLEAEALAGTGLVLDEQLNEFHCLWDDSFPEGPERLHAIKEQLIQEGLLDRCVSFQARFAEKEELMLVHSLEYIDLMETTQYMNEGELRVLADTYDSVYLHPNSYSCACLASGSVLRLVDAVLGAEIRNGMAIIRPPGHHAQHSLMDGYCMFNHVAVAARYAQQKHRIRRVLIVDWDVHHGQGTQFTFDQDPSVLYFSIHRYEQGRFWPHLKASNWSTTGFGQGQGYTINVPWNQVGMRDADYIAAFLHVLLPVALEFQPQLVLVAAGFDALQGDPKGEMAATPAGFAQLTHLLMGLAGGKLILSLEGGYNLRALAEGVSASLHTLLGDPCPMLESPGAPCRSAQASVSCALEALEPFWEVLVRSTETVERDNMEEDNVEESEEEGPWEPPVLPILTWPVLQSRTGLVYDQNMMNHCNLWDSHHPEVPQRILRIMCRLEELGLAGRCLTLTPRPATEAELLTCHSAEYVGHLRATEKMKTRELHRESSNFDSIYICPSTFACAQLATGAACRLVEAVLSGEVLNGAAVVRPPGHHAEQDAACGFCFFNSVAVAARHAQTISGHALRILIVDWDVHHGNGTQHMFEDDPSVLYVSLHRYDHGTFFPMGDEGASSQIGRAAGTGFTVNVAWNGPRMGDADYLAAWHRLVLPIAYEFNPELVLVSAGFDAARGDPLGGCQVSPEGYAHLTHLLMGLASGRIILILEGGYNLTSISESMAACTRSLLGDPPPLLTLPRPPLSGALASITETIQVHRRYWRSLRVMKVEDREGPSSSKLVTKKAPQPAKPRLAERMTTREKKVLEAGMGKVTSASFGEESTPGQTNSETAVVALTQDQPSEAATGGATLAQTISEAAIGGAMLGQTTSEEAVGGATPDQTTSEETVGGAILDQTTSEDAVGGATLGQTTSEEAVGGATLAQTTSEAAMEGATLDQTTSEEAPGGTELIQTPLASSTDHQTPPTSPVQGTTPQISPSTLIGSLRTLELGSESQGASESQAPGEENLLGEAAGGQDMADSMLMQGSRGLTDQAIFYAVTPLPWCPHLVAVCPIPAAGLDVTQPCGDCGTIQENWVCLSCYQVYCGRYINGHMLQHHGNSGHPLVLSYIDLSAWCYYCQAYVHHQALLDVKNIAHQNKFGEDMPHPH

[4] = molecular target: T1, Protein deacetylase HDAC6 (Homo sapiens); conditions: MV4-11, dose 50.0 nM, time 24.0 hrs
[5] = molecular target: T1, Protein deacetylase HDAC6 (Homo sapiens); conditions: MV4-11, dose 500.0 nM, time 24.0 hrs
Histone deacetylase 3 = Histone deacetylase 3 (Homo sapiens, UniProt O15379)
Description: Inhibition of purified recombinant human HDAC3 assessed as inhibition constant using fluorogenic substrate ZMAL (Z-Lys(Ac)-AMC as substrate measured after 90 mins by fluorescence microplate reader

[6] = molecular target: T2, Protein deacetylase HDAC6 (Homo sapiens, UniProt Q9UBN7); assay: Inhibition of purified recombinant human HDAC6 assessed as inhibition constant using residues 379-382 (RHKK(Ac)AMC) fluorogenic substrate p53 fluorogenic peptide as substrate measured after 90 mins by fluorescence assay
T2 sequence (Q9UBN7 whole entry): T1 sequence (whole entry)

Histone deacetylase 8 = molecular target: T3, Histone deacetylase 8 (Homo sapiens, UniProt Q9BY41); assay: Inhibition of purified recombinant human HDAC8 assessed as inhibition constant using residues 379-382 (RHKK(Ac)AMC) fluorogenic substrate p53 fluorogenic peptide as substrate measured after 90 mins by fluorescence assay
T3 sequence (Q9BY41 whole entry): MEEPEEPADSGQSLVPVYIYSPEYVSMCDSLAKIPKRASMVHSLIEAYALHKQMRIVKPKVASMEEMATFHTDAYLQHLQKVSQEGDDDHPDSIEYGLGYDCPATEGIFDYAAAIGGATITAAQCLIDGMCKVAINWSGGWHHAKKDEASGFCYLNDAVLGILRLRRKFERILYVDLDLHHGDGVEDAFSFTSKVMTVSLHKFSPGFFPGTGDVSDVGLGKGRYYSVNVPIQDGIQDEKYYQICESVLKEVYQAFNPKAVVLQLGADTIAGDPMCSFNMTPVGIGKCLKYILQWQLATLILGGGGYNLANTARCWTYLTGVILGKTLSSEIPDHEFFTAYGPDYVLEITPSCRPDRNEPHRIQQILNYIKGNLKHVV

[7] = molecular target: T4, Polyamine deacetylase HDAC10 (Homo sapiens, UniProt Q969S8); assay: Inhibition of purified recombinant human HDAC10 assessed as inhibition constant using residues 379-382 (RHKK(Ac)AMC) fluorogenic substrate p53 fluorogenic peptide as substrate measured after 90 mins by fluorescence assay
T4 sequence (Q969S8 whole entry): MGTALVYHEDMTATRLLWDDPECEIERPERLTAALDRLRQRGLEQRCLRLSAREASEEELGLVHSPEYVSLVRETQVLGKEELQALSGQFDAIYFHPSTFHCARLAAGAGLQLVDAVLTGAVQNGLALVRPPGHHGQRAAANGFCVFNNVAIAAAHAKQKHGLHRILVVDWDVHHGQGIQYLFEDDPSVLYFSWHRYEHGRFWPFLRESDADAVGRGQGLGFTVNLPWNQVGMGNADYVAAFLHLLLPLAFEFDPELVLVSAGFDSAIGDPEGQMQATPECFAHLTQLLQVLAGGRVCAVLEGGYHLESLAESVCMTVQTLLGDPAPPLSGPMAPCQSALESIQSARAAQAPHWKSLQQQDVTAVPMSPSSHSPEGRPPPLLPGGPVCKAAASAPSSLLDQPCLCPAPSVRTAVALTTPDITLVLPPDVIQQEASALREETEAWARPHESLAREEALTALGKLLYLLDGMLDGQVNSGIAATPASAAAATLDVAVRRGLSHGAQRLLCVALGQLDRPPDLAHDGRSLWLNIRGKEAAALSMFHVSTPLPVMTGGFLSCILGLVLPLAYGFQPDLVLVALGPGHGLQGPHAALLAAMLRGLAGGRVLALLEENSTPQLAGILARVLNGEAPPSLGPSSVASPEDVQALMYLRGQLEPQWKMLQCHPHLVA

MV4-11 = assay: Antiproliferative activity against human MV4-11 cells assessed as cell viability by measuring amount of ATP after 72 hrs incubation by CellTiteer-Glo Cell viability assay; conditions: MV4-11, 72 h

Histone deacetylase 3, sequence (O15379 whole entry, the tested form may be a part): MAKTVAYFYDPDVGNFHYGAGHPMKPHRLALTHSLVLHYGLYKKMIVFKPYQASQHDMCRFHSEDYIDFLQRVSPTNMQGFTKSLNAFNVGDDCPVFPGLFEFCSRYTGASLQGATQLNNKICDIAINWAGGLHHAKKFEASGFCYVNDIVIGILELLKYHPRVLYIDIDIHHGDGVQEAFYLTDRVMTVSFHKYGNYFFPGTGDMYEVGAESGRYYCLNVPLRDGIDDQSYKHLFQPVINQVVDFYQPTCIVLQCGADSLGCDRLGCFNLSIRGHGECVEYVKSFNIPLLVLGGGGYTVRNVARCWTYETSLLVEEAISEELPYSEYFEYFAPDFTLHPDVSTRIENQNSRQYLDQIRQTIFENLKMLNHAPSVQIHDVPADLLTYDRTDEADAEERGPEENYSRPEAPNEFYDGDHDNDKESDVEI

SMILES: CN1C(=O)C2CN(Cc3c2c2ccccc2n3Cc2ccc(C(=O)NO)cc2)C1=O (stereo not given)
inhibition [3]: inactive
inhibition [4]: inactive
inhibition [5]: inactive

SMILES: CN1C(=O)N2Cc3c(c4cc(O)ccc4n3Cc3ccc(C(=O)NO)cc3)C(c3cccs3)(C2)C1=O (racemic)
Ki (Histone deacetylase 3): 118 nM
Ki [6]: 0.31 nM

SMILES: Cn1cc(CNCC2CCN(c3ncc(C(=O)NO)cn3)CC2)c2ccccc21 [QUISINOSTAT]
Ki [7]: 1.49 nM

SMILES: O=C(CCCCCCNC(=O)c1cnc(N(c2ccccc2)c2ccccc2)nc1)NO [RICOLINOSTAT]
EC50 (MV4-11): 710 nM

SMILES: CC(/C=C/C(=O)NO)=C\[C@@H](C)C(=O)c1ccc(N(C)C)cc1 [TRICHOSTATIN]
EC50 (MV4-11): 15300 nM

Second part, the compound after the results:

remaining at 24 h (in vitro [1]): 91.4%
remaining at 72 h (in vitro [2]): 56.3%
SMILES: CN1C(=O)N2Cc3c(c4cc(OCCN5CCOCC5)ccc4n3Cc3ccc(C(=O)O)cc3)[C@](C)(C2)C1=O

Ki (Histone deacetylase 3): 675 nM
Ki [6]: 1.25 nM
Ki (Histone deacetylase 8): 1090 nM
SMILES: CN1C(=O)N2Cc3c(c4cc(OCCN5CCOCC5)ccc4n3Cc3ccc(C(=O)NO)cc3)C(C3CCCCC3)(C2)C1=O (racemic)

Ki (Histone deacetylase 3): 384 nM
Ki [6]: 0.44 nM
SMILES: CN1C(=O)N2Cc3c(c4cc(OCCN5CCOCC5)ccc4n3Cc3ccc(C(=O)NO)cc3)C(c3ccco3)(C2)C1=O (racemic)
